According to ChEMBL document CHEMBL1127194, “1,3- And 1,5-bisbiphenylyl substituted 3-metcaptotriazoles as angiotensin II receptor antagonists” (Bioorg Med Chem Lett, 1993):

Assays:
[1] = target: Oryctolagus cuniculus angiotensin II receptor; test: Inhibition of angiotensin II induced contractions in rabbit aortic ring preparation.
Rattus norvegicus [2] = test: Tested for the decrease in blood pressure at a dose of ~5 mg/kg by intravenous administration for ~24h; assay type: functional
Rattus norvegicus [3] = test: Tested for the decrease in blood pressure at a dose of ~10 mg/kg by intravenous administration for ~24h; assay type: functional

| SMILES | pA2 [1] | Blood pressure (Rattus norvegicus [2]) [mmHg] | Blood pressure (Rattus norvegicus [3]) [mmHg] |
| --- | --- | --- | --- |
| CCCCCCCc1nc(S(=O)(=O)Cc2ccc(-c3ccccc3C(=O)O)cc2)nn1Cc1ccc(-c2ccccc2C(=O)O)cc1 | 6.5 |  |  |
| O=C(O)c1ccccc1-c1ccc(CSc2nc(Cc3ccccc3)nn2Cc2ccc(-c3ccccc3C(=O)O)cc2)cc1 | 6.1 |  |  |
| CC(C)Cc1nc(SCc2ccc(-c3ccccc3C(=O)O)cc2)nn1Cc1ccc(-c2ccccc2C(=O)O)cc1 | 7.5 |  |  |
| CCCCCCc1nc(S(=O)(=O)Cc2ccc(-c3ccccc3C(=O)O)cc2)nn1Cc1ccc(-c2ccccc2C(=O)O)cc1 | 8.1 |  |  |
| CCCCCCc1nc(SCc2ccc(-c3ccccc3C(=O)O)cc2)nn1Cc1ccc(-c2ccccc2C(=O)O)cc1 | 8 |  |  |
| CCCCc1nc(SCc2ccc(-c3ccccc3C(=O)O)cc2)nn1Cc1ccc(-c2ccccc2C(=O)O)cc1 | 8.3 |  |  |
| CCCCCc1nc(SCc2ccc(-c3ccccc3C(=O)O)cc2)nn1Cc1ccc(-c2ccccc2C(=O)O)cc1 | 8.4 | 24 |  |
| CCCCCc1nc(SCc2ccc(-c3ccccc3C#N)cc2)nn1Cc1ccc(-c2ccccc2C(=O)O)cc1 | 6.3 |  |  |
| CCCCCc1nc(SCc2ccc(-c3ccccc3C(=O)O)cc2)nn1Cc1ccc(-c2ccccc2C#N)cc1 | < 5 |  |  |
| CCCCCc1nc(SCc2ccc(-c3ccccc3C(=O)OC)cc2)nn1Cc1ccc(-c2ccccc2C(=O)OC)cc1 | < 5 |  |  |
| CCCCCc1nc(SCc2ccc(-c3ccccc3C(=O)O)cc2)n(Cc2ccc(-c3ccccc3C(=O)O)cc2)n1 | 7.2 |  |  |
| CCCCCCCCc1nc(S(=O)(=O)Cc2ccc(-c3ccccc3C(=O)O)cc2)nn1Cc1ccc(-c2ccccc2C(=O)O)cc1 | 6.1 |  |  |
| CCCCCCCc1nc(SCc2ccc(-c3ccccc3C(=O)O)cc2)nn1Cc1ccc(-c2ccccc2C(=O)O)cc1 | 6.7 |  |  |
| CCCCc1nc(Cl)c(CO)n1Cc1ccc(-c2ccccc2-c2nnn[nH]2)cc1 [LOSARTAN] |  |  | 37 |
| CCCCc1nc(SCc2ccc(-c3ccccc3C(=O)O)cc2)n(Cc2ccc(-c3ccccc3C(=O)O)cc2)n1 | 7 |  |  |
| CCCCCCCc1nc(SCc2ccc(-c3ccccc3C(=O)O)cc2)n(Cc2ccc(-c3ccccc3C(=O)O)cc2)n1 | 5.9 |  |  |
| O=C(O)c1ccccc1-c1ccc(CSc2nc(Cc3ccccc3)n(Cc3ccc(-c4ccccc4C(=O)O)cc3)n2)cc1 | 7 |  |  |
| CCCCc1nc(SCc2ccc(-c3ccccc3C(=O)OC)cc2)nn1Cc1ccc(-c2ccccc2C(=O)OC)cc1 | < 5 |  |  |
